Measurements reported in patent publication US6150414A, “Compositions and methods for treating viral infections” (priority 1992, dated 2000).
pEC50: −log10 of the molar value. “And” between values parts separate entries of the source, which are not always exact repeats. Equal entries are not always repeated. Where two headings read alike, the source gives them in different places.

Legend:
retroviruses (virions) = assay: Direct inactivation of retroviruses (virions) in vitro (Example 10); format: biochemical, Radiation Leukemia Virus; conditions: Table IX
Method: (§1) Supernatants (10 ml/tube) from B10.T(6R) cells (Meruelo et al. J. Exp. Med. 147: 470-487, 1978) chronically infected with Radiation Leukemia Virus (RadLV) were obtained by centrifugation of cells in culture at 4° C., 3500 rpm for 15 minutes. The top 2/3 of the supernatant were removed and aliquots were incubated for 30 minutes on ice with the indicated amounts of hypericin or protohypericin. […] Thereafter, supernatants were centrifuged at 100,000×g using a TI70 rotor (Beckman Instruments) for 1 hour at 4° C. The pellet was […] and analyzed for reverse transcriptase activity as follows.
(§2) The reverse transcriptase assay was performed in a volume of 100 microliters containing the following components:
(1) Direct inactivation of retroviruses in vitro, performed as in Example 3 above;
(§3) The results presented above in Table IX are presented as EC50 concentrations. These are the effective concentrations which inhibit 50% of the viruses in micromolar concentrations.

Friend Leukemia Virus [1] = assay: Inhibition of Friend Leukemia Virus-induced splenomegaly in mice, compounds intraperitoneally 24 hours after virus (Example 1(a)); format: in vivo, BALB/c mice; parameters: Actual Spleen Weight / Average Spleen Weight: unit not given here; conditions: Table III
Source text: The effects of compositions according to the present invention on infection of mammals with Friend Leukemia Virus (FV) were examined.
Friend Leukemia Virus is an aggressive retrovirus which induces an acute erythroleukemia in sensitive strains of mice such as BALB/c and NIH swiss mice as described in Friend, C. J., Exp. Med. 105: 307-324, 1957; Friend, C. et al. Proc. Natl. Acad. Sci. USA 68: 378-383, 1971; Friend, C. et al. Natl. Cancer Inst. Mongr. 22: 508-552, 1966. The malignant transformation is the result of the combined activities of the Spleen Focus Forming Virus (SFFV) and the ecotropic Murine Friend Leukemia Helper Virus (F-MuLV). The acute erythroleukemia is characterized by hepatosplenomegaly (a marked increase in the size of the spleen and liver) and a severe anemia.
Friend Leukemia Virus was prepared by homogenizing the enlarged spleen of a mouse previously infected with FV, 10 days after intravenous virus injection. The spleen was homogenized in phosphate buffered saline in a volume equal to ten times the weight of the isolated spleen.
(§4) The effects of compositions according to the present invention on the increase in spleen size (splenomegaly) of BALB/c mice (Jackson Labs, Bar Harbor, ME) was examined. In these experiments, the virus (10^6 focus forming units--FFU) was inoculated intravenously and 100 micrograms of the compounds indicated in Table II were administered to the mice intraperitoneally 24 hours later. Each compound was administered once to two mice. The animals were sacrificed ten days later and their spleens weighed.
The present assay has been developed from similar assays using hypericin or pseudohypericin and employing higher numbers of experimental animals per group (e.g. 4 animals). It was discovered however that the specificity and sensitivity of this assay are such that an experimental group of two animals is of more than adequate predictive value.
(§5) As used in Table II (and subsequent Tables of this Example l(a) and (b), "average percent inhibition" is calculated as follows: [formula] wherein "ASWNC" designates "average spleen weight of negative control"; "ASWE" designates "average spleen weight of experimental (treated) subject"; and "ASWPC" designates "average spleen weight of positive control". Average spleen weight is the numerical average of spleen weights of each experimental group (in Table II each such group includes two members).
In these experiments, the virus (10^6 focus forming units--FFU) was inoculated intravenously, and the indicated doses of the antiviral compounds of this invention were administered to the BALB/c mice intraperitoneally 24 hours later. The animals were then sacrificed ten days later and their spleens weighed.
Pseudohypericin was diluted in phosphate buffered saline with 1% ethanol.
An expanded series of experiments was next performed in which various concentrations (i.e. 50, 100, 200 and 2×100, i.e., 100 micrograms administered twice) of a different set of PAC compounds (numbers 16-29 and 30-36 in Table III below) were administered intraperitoneally each according to the same protocol described above. Compounds 16-29 all had 3-5 fused, aromatic rings and no side groups except for oxygen or hydroxyl groups, whereas compounds 30-36 all had 3 fused aromatic rings and side chains selected from the group of oxygen, hydroxyl and methyl.
When 2 doses of the compounds were given, the second dose was administered 24-48 hours after the first injection. The animals were infected and splenomegaly determined as above for the compounds in Table II. In Table III, "pooled average percent inhibition" is calculated by adding the average percent inhibition for each experiment with the same compound and dividing the sum by the number of experiments (i.e. the number 4). […]

Friend Leukemia Virus [2] = assay: In vivo inhibition of Friend Leukemia Virus splenomegaly, intravenous 1-2 hours post infection (Example 10); parameters: species or system mice; conditions: Mus musculus, read-out: EC50 for FV-induced splenomegaly
Method: (3) In vivo inhibition of Friend Leukemia Virus Splenomegaly performed as described in Example 1 above except that the compounds were administered intravenously 1-2 hours post infection.
as §3

[3] = molecular target: T1, Radiation Leukemia Virus reverse transcriptase (Radiation murine leukemia virus, UniProt P11227); assay: Radiation Leukemia Virus reverse transcriptase assay, supernatants from infected AQR cells (Examples 4 and 9); format: biochemical; conditions: for CPM: replicate
T1 construct: the reverse transcriptase of Radiation Leukemia Virus; endogenous in cells
Method: as §1, §2
The antiviral activity of HHA was tested using AQR (Bach and Meruelo, J. Exp. Med. 160:270-285, 1984) cells chronically infected with Radiation Leukemia Virus in the reverse transcriptase assay as described in Example 3 above.
The assays were conducted using the same procedure as in Example 3 above, using supernatants from infected AQR cells.

Friend Virus = assay: Friend Virus-induced splenomegaly, WIS compounds (Example 8); format: in vivo, mice; conditions: Table VII; for Actual Spleen Weight: single animal
Method: as §4, §5
The AAB compounds whose synthesis is described above were assayed for antiviral activity. WIS-2, -3, -4, -5 and -6 were tested to determine their biological effects on Friend Virus-induced splenomegaly using the procedure and technique set forth in Example 1 above. The assay results (three mice per group were tested each at different concentrationss of the active composition except for the PBS-negative control wherein two animals per group were used) are reported in Table VII below.

For `Cc1cc(O)c2c(c1)C(=O)c1cc(O)cc(O)c1C2=O` [Compound 34, Emodin], the pEC50 (retroviruses (virions)) was less than 4.43, the inhibition in vivo at 0.1 mg (Friend Leukemia Virus [1]; Mus musculus, ip, dose 2 × 100 (micrograms) i.p., read-out: Average Perdosage % Inhibition) was 42% and the inhibition in vivo at 0.05 mg (Friend Leukemia Virus [1]; Mus musculus, ip, dose 50 (micrograms) i.p., read-out: Average Perdosage % Inhibition) was 41%. For the same compound, the inhibition in vivo at 0.1 mg (Friend Leukemia Virus [1]; Mus musculus, ip, dose 100 (micrograms) i.p., read-out: Average Perdosage % Inhibition) was 50%, the inhibition in vivo at 0.2 mg (Friend Leukemia Virus [1]; Mus musculus, ip, dose 200 (micrograms) i.p., read-out: Average Perdosage % Inhibition) was 20% and the “Average Spleen Weight” value (Friend Leukemia Virus [1]; dose 2 × 100 (micrograms) i.p.) was 1.2834. For the same compound, the “Average Spleen Weight” value (Friend Leukemia Virus [1]; dose 50 (micrograms) i.p.) was 1.2914, the “Average Spleen Weight” value (Friend Leukemia Virus [1]; dose 100 (micrograms) i.p.) was 1.1333 and the “Average Spleen Weight” value (Friend Leukemia Virus [1]; dose 200 (micrograms) i.p.) was 1.6902. The “Pooled Average % Inhibition” value (Friend Leukemia Virus [1]; pooled over 50, 100, 200, 2 × 100 micrograms) was 38%.

With `CC(=O)Oc1cc(O)c2c(=O)c3c(O)cc(C)c4c5c(C)cc(O)c6c(=O)c7c(O)cc(OC(C)=O)c8c1c2c(c34)c(c65)c78` [WIS-6, hypericin diacetate] the pEC50 (Friend Leukemia Virus [2]) was less than 3.59, the pEC50 (retroviruses (virions)) was 6.07 and the “Average CPM” value ([3]; 0.05 micrograms, Table VIII) was 190,506 CPM. The CPM ([3]; 0.05 micrograms, Table VIII) was 195,374 CPM and 185,638 CPM, the “Average CPM” value ([3]; 0.1 micrograms, Table VIII) was 389,388 CPM and the CPM ([3]; 0.1 micrograms, Table VIII) was 188,378 CPM and 590,398 CPM. The “Average CPM” value ([3]; 0.5 micrograms, Table VIII) was 161,570 CPM, the CPM ([3]; 0.5 micrograms, Table VIII) was 116,590 CPM and 206,550 CPM and the “Average CPM” value ([3]; 1 microgram, Table VIII) was 153,363 CPM. The CPM ([3]; 1 microgram, Table VIII) was 124,996 CPM and 181,730 CPM, the “Average CPM” value ([3]; 2 micrograms, Table VIII) was 94,199 CPM and the CPM ([3]; 2 micrograms, Table VIII) was 96,562 CPM and 91,836 CPM. For the same compound, the “Average CPM” value ([3]; 5 micrograms, Table VIII) was 90,273 CPM, the CPM ([3]; 5 micrograms, Table VIII) was 86,850 CPM and 93,696 CPM and the “Average CPM” value ([3]; 10 micrograms, Table VIII) was 146,588 CPM. For the same compound, the CPM ([3]; 10 micrograms, Table VIII) was 178,026 CPM and 115,150 CPM, the inhibition at 50 ng ([3]; 0.5 h, 0.05 micrograms, Table VIII) was 76.7% and the inhibition at 0.0001 mg ([3]; 0.5 h, 0.1 micrograms, Table VIII) was 52.3%. For the same compound, the inhibition at 0.0005 mg ([3]; 0.5 h, 0.5 micrograms, Table VIII) was 80.2%, the inhibition at 0.001 mg ([3]; 0.5 h, 1 microgram, Table VIII) was 81.2% and the inhibition at 0.002 mg ([3]; 0.5 h, 2 micrograms, Table VIII) was 88.5%. The inhibition at 0.005 mg ([3]; 0.5 h, 5 micrograms, Table VIII) was 88.9%, the inhibition at 0.01 mg ([3]; 0.5 h, 10 micrograms, Table VIII, read-out: Average % Inhibition) was 82% and the “Average % Inhibition” value (Friend Virus; 1 microgram) was 18.4%. For the same compound, the “Average Spleen Weight” value (Friend Virus; 1 microgram) was 0.8210, the “Actual Spleen Weight” value (Friend Virus; 1 microgram) was 0.9291 and 0.8017 and 0.7323 and the “Average % Inhibition” value (Friend Virus; 10 micrograms) was 9.2%. The “Average Spleen Weight” value (Friend Virus; 10 micrograms) was 0.8930, the “Actual Spleen Weight” value (Friend Virus; 10 micrograms) was 0.8387 and 0.8529 and 0.9874 and the “Average % Inhibition” value (Friend Virus; 50 micrograms) was 3.2%. For the same compound, the “Average Spleen Weight” value (Friend Virus; 50 micrograms) was 0.9407, the “Actual Spleen Weight” value (Friend Virus; 50 micrograms) was 0.9012 and 0.9969 and 0.9241 and the “Average % Inhibition” value (Friend Virus; 150 micrograms) was 18.6%. For the same compound, the “Average Spleen Weight” value (Friend Virus; 150 micrograms) was 0.8187 and the “Actual Spleen Weight” value (Friend Virus; 150 micrograms) was 0.7921 and 0.8013 and 0.8626.

`CC(=O)Oc1cc(C)c2c3c(C)cc(OC(C)=O)c4c(=O)c5c(OC(C)=O)cc(OC(C)=O)c6c7c(OC(C)=O)cc(OC(C)=O)c8c(=O)c1c2c(c87)c(c43)c56` [HHA, Hypericin hexaacetate] was tested, and the pEC50 (Friend Leukemia Virus [2]) was less than 3.70, the pEC50 (retroviruses (virions)) was 4.89 and the “Average CPM” value ([3]; 0.05 micrograms, Table VI) was 466,981 CPM. For the same compound, the CPM ([3]; 0.05 micrograms, Table VI) was 441,410 CPM and 492,552 CPM, the “Average CPM” value ([3]; 0.1 micrograms, Table VI) was 202,454 CPM and the “Average percent inhibition” value ([3]; 0.1 micrograms, Table VI) was 54.8%. For the same compound, the CPM ([3]; 0.1 micrograms, Table VI) was 208,882 CPM and 196,026 CPM, the “Average CPM” value ([3]; 0.5 micrograms, Table VI) was 501,386 CPM and the CPM ([3]; 0.5 micrograms, Table VI) was 518,336 CPM and 484,356 CPM. For the same compound, the “Average CPM” value ([3]; 1 microgram, Table VI) was 451,634 CPM, the CPM ([3]; 1 microgram, Table VI) was 401,306 CPM and 501,962 CPM and the “Average CPM” value ([3]; 5 micrograms, Table VI) was 205,891 CPM. For the same compound, the “Average percent inhibition” value ([3]; 5 micrograms, Table VI) was 54.1%, the CPM ([3]; 5 micrograms, Table VI) was 221,098 CPM and 190,604 CPM and the “Average CPM” value ([3]; 10 micrograms, Table VI) was 91,440 CPM. For the same compound, the “Average percent inhibition” value ([3]; 10 micrograms, Table VI) was 79.6%, the CPM ([3]; 10 micrograms, Table VI) was 96,654 CPM and 86,226 CPM and the “Average CPM” value ([3]; 50 micrograms, Table VI) was 5,305 CPM. The “Average percent inhibition” value ([3]; 50 micrograms, Table VI) was 98.8%, the CPM ([3]; 50 micrograms, Table VI) was 5,236 CPM and 5,374 CPM and the “Average CPM” value ([3]; 100 micrograms, Table VI) was 2,545 CPM. For the same compound, the “Average percent inhibition” value ([3]; 100 micrograms, Table VI) was 99.4%, the CPM ([3]; 100 micrograms, Table VI) was 2,750 CPM and 2,340 CPM and the “inhibition of RadLV reverse transcriptase activity” value ([3]; Example 4) was “about as active a protohypericin in inhibiting the RadLV reverse transcriptase activity”.
